The values that follow come from patent publication US20100248321A1, “SURFACTANT AMENDMENTS FOR THE STIMULATION OF BIOGENIC GAS GENERATION IN DEPOSITS OF CARBONACEOUS MATERIALS” (LUCA Technologies, Inc., priority 2009, published 2010).

The test system of assay [1] is coal samples from the Powder River Basin in Wyoming. The assay is described as follows: biogenic methane generation from coal samples after surfactant amendment. The settings on record: after more than 100 days; headspace methane by gas chromatograph; surfactants tested at 0.05 to 0.5 g/L; 2.5 gram coal, 15 mL formation water. The arrangement: species or system microbial consortia present in coal and associated waters. On the procedure:
(§1) Experiments were conducted to compare biogenic methane generation from coal samples after introducing an amendment of a surfactant. For each experiment, methane generation from coal samples from the Powder River Basin in Wyoming and shale samples from the Antrim Shale in Michigan was periodically measured over the course of more than 100 days. Each 2.5 gram coal sample or 5 g shale sample was placed in a 30 ml serum bottle with 15 mL of water that was also taken from the formation. The coal or shale and formation water were placed in the serum bottle while working in an anaerobic glove bag. The headspace in the bottle above the sample was flushed with a mixture of N2 and CO2 (95/5).
(§2) Amendments were then added to the samples. Surfactants were tested at concentrations of 0.05 to 0.5 g/L. Surfactants were tested alone and in combination with other amendments, including proteins (e.g., yeast extract), phosphate and acetate. The samples were then sealed, removed from the glove bag, and stored at a temperature close to the in situ temperature for the coal or shale samples over the course of the experiments.
(§3) The methane levels in the headspace above the samples was periodically measured and recorded. The methane was measured by running samples of the headspace gases through a gas chromatograph equipped with a thermal conductivity detector.

Assay [2] relates to shale samples from the Antrim Shale in Michigan. The assay is described as follows: biogenic methane generation from shale samples after surfactant amendment. The settings on record: after more than 100 days; headspace methane by gas chromatograph; surfactants tested at 0.05 to 0.5 g/L; 5 g shale, 15 mL formation water. The arrangement: species or system microbial consortia present in shale and associated waters. Here is the method:
as §1, §2, §3

For the molecule `CCCCOCCO` [2-butoxyethanol], the “methane production in coal containing bottles” value in assay [1] is “highest levels of methane production”. In addition, the “methane production in shale containing bottles” value in assay [2] is recorded as “highest levels of methane production”.
Take `CCCCCCCC/C=C\CCCCCCCC(=O)N(C)CCS(=O)(=O)[O-].[Na+]` [Geropon T-77]: the “methane production in coal containing bottles” value in assay [1] was “highest levels of methane production”.
Same read-out and setting: in the case of Benzalkonium chloride it was “highest levels of methane production”.
